Experimental data published in patent US7838516B2, “15 β-substituted steroids having selective estrogenic activity” (priority 2004, dated 2010).

Assays:
[1] = biological target: T1, human estrogen receptor α (hERα) (Homo sapiens, UniProt P03372); assay: In vitro bioassay of estrogenic agonistic transactivation in recombinant CHO cells (hERα, rat oxytocin promoter, luciferase reporter); format: cell-based
T1 sequence (P03372 1-595): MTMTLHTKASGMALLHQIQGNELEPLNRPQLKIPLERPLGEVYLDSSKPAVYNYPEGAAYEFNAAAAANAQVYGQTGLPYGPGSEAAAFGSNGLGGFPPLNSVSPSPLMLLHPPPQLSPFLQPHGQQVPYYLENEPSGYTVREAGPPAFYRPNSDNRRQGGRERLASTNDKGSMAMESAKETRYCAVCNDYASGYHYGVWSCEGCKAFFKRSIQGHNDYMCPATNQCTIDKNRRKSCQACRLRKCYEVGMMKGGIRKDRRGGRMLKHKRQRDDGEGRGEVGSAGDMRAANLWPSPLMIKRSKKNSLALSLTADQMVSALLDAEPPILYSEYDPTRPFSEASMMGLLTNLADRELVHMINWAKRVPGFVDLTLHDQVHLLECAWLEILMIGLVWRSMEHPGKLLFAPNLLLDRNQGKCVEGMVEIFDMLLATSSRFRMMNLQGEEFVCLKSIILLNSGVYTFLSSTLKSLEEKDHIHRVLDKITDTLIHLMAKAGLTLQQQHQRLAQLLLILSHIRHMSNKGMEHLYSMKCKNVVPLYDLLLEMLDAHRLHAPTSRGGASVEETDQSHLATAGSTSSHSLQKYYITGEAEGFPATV
Experimental: (§1) The agonistic activity of compounds on the estrogen receptors was determined in an in vitro bioassay with recombinant Chinese hamster ovary (CHO) cells stably co-transfected with the human estrogen receptor α (hERα) or β (hERβ), the rat oxytocin promoter (RO) and the luciferase reporter gene (LUC). […] A more detailed description of the methodology can be found in De Gooyer M. E., Deckers G. H., Schoonen W. G. E. J., Verheul H. A. M. and Kloosterboer H. J., Steroids, Vol. 68, 2003, pp. 21-30.
(§2) ERα/ERβ selectivity is defined as the ratio ERα-potency/ERβ-potency.

[2] = biological target: human estrogen receptor β (hERβ) (Homo sapiens, UniProt Q92731); assay: In vitro bioassay of estrogenic agonistic transactivation in recombinant CHO cells (hERβ, rat oxytocin promoter, luciferase reporter); format: cell-based
Sequence of human estrogen receptor β (hERβ) (Q92731 whole entry): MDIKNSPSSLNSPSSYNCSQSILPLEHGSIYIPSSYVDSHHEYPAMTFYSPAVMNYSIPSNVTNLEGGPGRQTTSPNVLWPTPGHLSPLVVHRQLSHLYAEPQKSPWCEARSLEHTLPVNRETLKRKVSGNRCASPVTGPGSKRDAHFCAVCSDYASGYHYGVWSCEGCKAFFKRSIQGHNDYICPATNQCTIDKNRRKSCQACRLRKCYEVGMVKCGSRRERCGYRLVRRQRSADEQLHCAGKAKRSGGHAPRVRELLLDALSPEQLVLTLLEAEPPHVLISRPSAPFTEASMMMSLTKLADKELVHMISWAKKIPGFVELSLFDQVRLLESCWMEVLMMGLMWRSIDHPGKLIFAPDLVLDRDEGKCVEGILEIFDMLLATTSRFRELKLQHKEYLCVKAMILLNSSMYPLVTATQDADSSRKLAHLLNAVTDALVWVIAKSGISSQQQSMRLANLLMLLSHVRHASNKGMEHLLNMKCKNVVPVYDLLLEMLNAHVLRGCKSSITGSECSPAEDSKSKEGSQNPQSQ
Experimental: as §1, §2

[3] = test system: Cynomolgus monkey uterine tissue (endometrium); assay: Histopathological evaluation of Cynomolgus monkey uterine tissue after 8 week oral treatment; format: in vivo; settings: 8 weeks, average score per category, grades 0-5
Experimental: Histopathological evaluation of Cynomolgus monkey uterine tissue was performed by a pathologist after an 8 week oral treatment with the test compound in four animals per treatment group. […] The following morphological characteristics were examined in H&E stained sections, based on the uterine phases of the normal menstrual cycle in Cynomolgus monkeys. • A. Follicular phase-like changes: • loose endometrial stroma • straight endometrial glands • hypertrophy of endometrial epithelium • mitotic figures • hypertrophy of myometrium • early angiogenesis (sprouting or early proliferation) • basal secretion • B. Luteal phase-like changes • pseudodecidually enlarged stromal cells • coiling of endometrial glands • late angiogenesis (spiral artery formation) • vacuolation of endometrial epithelium • luminal secretion • C. Ovariectomized or non-stimulated (atrophic) endometrium • compact endometrial stroma • atrophy of endometrial epithelium • atrophy of endometrial glands • atrophy of myometrium The severity of each of these above-mentioned findings was scored using a scale of grading: • grade 0: finding not present • grade 1: minimal, very few, very small • grade 2: slight, few, small • grade 3: moderate, moderate number, moderate size • grade 4: marked, many, large • grade 5: massive, extensive number, extensive size For each animal this grading was done. Then the average score per treatment group was calculated for each characteristic. Finally, an average score per category, atrophic, follicular- or luteal phase-like, was calculated from the average individual characteristics. A favourable endometrial safety profile for a compound is characterized by less compound-induced follicular phase-like activity combined with more luteal phase-like characteristics and/or atrophic endometrium.

[4] = test system: progesterone-induced lordosis behavior in female ovariectomised rats; assay: Facilitation of progesterone-induced lordosis behavior in female ovariectomised rats; format: in vivo, rat; settings: oral dosing at 1 mg/kg.day, three days pre-treatment, then progestagen
Text: Rat female sexual behavior is hormone dependent. In estrogen-primed female rats progesterone clearly enhances female sexual or lordosis behavior. However, progesterone is not effective in inducing lordosis in ovariectomised females that have not received estrogen (see also J. B. Becker, S. M. Breedlove and D. Crews (Eds.), Behavioral Endocrinology, 1992, pp. 82-84).
Females were pre-treated for three days with test compound followed by treatment with a progestagen on the fourth day. Four hours after progesterone treatment sexual behavior of the female rat was measured in the presence of a male rat by counting the number of lordosis responses during 10 minutes.

[5] = relative to 17β-estradiol: (EC50 17β-estradiol/EC50 test compound)×100%, CHO cells, luciferase

Row | Compound | ERα/ERβ-selectivity (potency) ([1]; ratio ERα-potency/ERβ-potency) | ERα-potency (%) [1, 5] [%] | agonist character at the estrogen β-receptor ([2]; in words) | ERβ-efficacy (%) ([2]; maximal activation relative to maximal activation by 17β-estradiol) | ERβ-potency (%) [2, 5] [%] | Monkey Endometrial profile (scores): Atrophic ([3]; 40 μg/kg once daily oral) | Monkey Endometrial profile (scores): Follicular ([3]; 40 μg/kg once daily oral) | Monkey Endometrial profile (scores): Luteal ([3]; 40 μg/kg once daily oral) | Monkey Endometrial profile (scores): Atrophic ([3]; 200 μg/kg once daily oral) | Monkey Endometrial profile (scores): Follicular ([3]; 200 μg/kg once daily oral) | Monkey Endometrial profile (scores): Luteal ([3]; 200 μg/kg once daily oral) | in vivo estrogenic activity (facilitation of lordosis) [4]
1 | C#C[C@]1(O)C[C@@H](C)[C@H]2[C@@H]3[C@H](CC)Cc4cc(O)ccc4[C@H]3CC[C@@]21C [Compound 8, 7α-ethyl-15β-methyl-19-nor-17α-pregna-1,3,5(10)-trien-20-yne-3,17β-diol] | 15.2 | 23.45 | partial agonist | 40 | 1.54 | 3.0 | 0.0 | 0.0 | 2.3 | 0.5 | 0.2 | 
2 | C#CC1(O)CC(C)C2C3C(CC)Cc4cc(OC(=O)C(C)(C)C)ccc4C3CCC21C (stereo not drawn) [Compound 9a, 3-pivaloyloxy-7α-ethyl-15β-methyl-19-nor-17α-pregna-1,3,5(10)-trien-20-yne-17β-ol] |  |  |  |  |  |  |  |  |  |  |  | active estrogenic compounds
3 | C#C[C@]1(O)CC[C@H]2[C@@H]3CCc4cc(O)ccc4[C@H]3CC[C@@]21C [Compound X, 17α-ethynyl-17β-estradiol, reference compound] |  |  |  |  |  | 0 | 2.8 | 0.4 |  |  |  | 
4 | C[C@]12CC[C@@H]3c4ccc(O)cc4CC[C@H]3[C@@H]1CC[C@@H]2O [Compound Y, 17β-estradiol, reference compound] |  |  |  |  |  |  |  |  | 0 | 3.6 | 0.2 | 
